Where a name gives a salt, the structure may show the parent alone. Read-outs that look alike come from different tables or passages of the source. One block for each compound: values may come before it.
Assays:
[1] = test system: mature human erythrocytes; test: MCV and MCHC of inhibitor-treated erythrocytes (ADVIA 120 Hematology System); format: cell-based; conditions: Hct 0.6%
Method: Erythrocyte concentrates (0.6% Hct), suspended in 30 ml Ringer solution were treated with Bay 11–7082 (20 μM), parthenolide (50 μM) and DMF (140 μM) for 24 h, respectively. DMSO (0.2% (v/v))-treated erythrocytes served as negative controls. After incubation, samples were centrifuged at 210 g for 10 min at room temperature in order to obtain RBC pellets. Ionomycin (0.25 μM)-treated erythrocytes served as positive controls, and were first incubated in Ringer solution in the absence of ionomycin for 21.5 h. Subsequently, the cells were treated with ionomycin for 2.5 h, and the MCV and MCHC values were determined. The MCV and MCHC analysis was carried out with an ADVIA 120 Hematology System Instrument (Siemens, Germany).

[2] = test system: mature human erythrocytes; test: Forward scatter (FSC, GeoMean) by flow cytometry, cell volume / cell shrinkage; format: cell-based; conditions: for GeoMean: Hct 0.6%; for decrease of cell volume (forward scatter): increasing concentrations, 24 h and 48 h, 0.4% Hct
Method: (§1) After incubation, 2·10^6 RBCs were washed in 500 μl Annexin-binding buffer. RBC pellets were then vortexed gently to get a homogenous cell suspension. To detect phosphatidylserine (PS) on the outer leaflet of the plasma membrane, these cells were subsequently stained with 32 μl Annexin V-FLUOS at a 1:33 dilution and mixed gently on a vortex mixer. After 20 min incubation in the dark at room temperature, 200 μl of Annexin-binding buffer was added to each sample, thoroughly vortexed to achieve single cell suspensions, and analysed by flow cytometry on a FACS-Calibur (Becton Dickinson, Heidelberg, Germany). Cell volume was determined by forward scatter (FSC), and Annexin V-FLUOS binding was measured in the FL1-channel.

[3] = test system: GSH in mature human erythrocytes; test: Intracellular GSH measurement by HPLC (GS-NEM conjugate); format: cell-based; conditions: for GSH depletion / GSH: 24 h; for GSH: 0.6% Hct, DMSO control 7.52; for IC50: 24 h in Ringer solution, 0.6% Hct (mean GSH 15 μM), read-out: IC50 (GSH depletion)
Method: (§2) DMSO-treated erythrocytes served as negative controls. After incubation, erythrocytes were treated with 0.6 mM (final concentration) NEM prepared as a 310 mM stock in H2O. NEM functioned as the best alkylating agent for GSH conjugation to prevent sample manipulation-induced oxidation of GSH. After a 2-min incubation at room temperature, samples were centrifuged at 210 g for 10 min in order to obtain RBC pellets. These were immediately stored at −20 °C until GSH and GSSG analyses were performed. All measurements were carried out within one week after the treatment. GSH and GSSG were measured in the clear supernatant obtained by treatment of 0.1 ml RBCs with 0.12 ml 15% (w/v) trichloroacetic acid. GSH analysis was carried out by high-performance liquid chromatography (HPLC), as recently reported. […] GSSG was measured photometrically by the GSH recycling method with slight modifications. For hemoglobin determination, one aliquot of the RBC suspensions (10 μl) was hemolysed by 1:200 dilution with H2O[62]. The HPLC analyses were carried out with an Agilent series 1100 instrument (Agilent Technologies, Milan, Italy). The photometric analyses were performed with a Jasco V-530 instrument (Jasco Europe s.r.l. Cremella, Como, Italy).

[4] = test system: GSSG in mature human erythrocytes; test: Intracellular GSSG measurement, photometric GSH recycling method; format: cell-based; conditions: 24 h, 0.6% Hct, DMSO control 0.06
Method: as §2

[5] = target: T1, glucose-6-phosphate dehydrogenase (G6PDH) (Homo sapiens, UniProt P11413); test: G6PDH activity in lysates of inhibitor-treated erythrocytes; format: cell-based; conditions: for EC100 (inhibition of G6PDH activity) / EC50: erythrocytes treated 24 h, 0.6% Hct; for EC50: read-out: EC50 (inhibition of G6PDH activity)
T1 construct: endogenous in cells; host or cells: human erythrocytes (RBC concentrates), treated 24 h, then lysed
Method: (§3) DMSO-treated erythrocytes served as negative controls. Determinations of the enzymatic activities of G6PDH, 6PGDH and GR (+/− FAD) were performed in leukocytes- and platelets-free erythrocyte lysates according to standard biochemical procedures. After 10 min incubation (20 min for GR) at 37 °C the reaction was started by adding substrate or co-factor. Changes in absorbance at 340 nm were recorded at 1 min intervals for 20 min (Infinite 200 Nanoquant spectrophotometer; Tecan, Männedorf, Switzerland). Specific activity of all enzymes was expressed as U/g Hb. The combined activity of G6PDH and 6PGDH was determined by estimating the conversion of NADP^+ to NADPH in the presence of glucose-6-phosphate (600 μM). The activity of 6PGDH alone was then measured by the conversion of NADP^+ to NADPH in the presence of 6-phosphogluconate (600 μM). Finally, G6PDH activity was calculated by subtracting 6PGDH activity from total dehydrogenase activity.

[6] = target: T2, glutathione reductase (GR) (Homo sapiens, UniProt P00390); test: GR activity (+/- FAD) in lysates of inhibitor-treated erythrocytes; format: cell-based
T2 construct: endogenous in cells; host or cells: human erythrocytes (RBC concentrates), treated 24 h, then lysed
T2 sequence (P00390 1-479 isoform P00390-2): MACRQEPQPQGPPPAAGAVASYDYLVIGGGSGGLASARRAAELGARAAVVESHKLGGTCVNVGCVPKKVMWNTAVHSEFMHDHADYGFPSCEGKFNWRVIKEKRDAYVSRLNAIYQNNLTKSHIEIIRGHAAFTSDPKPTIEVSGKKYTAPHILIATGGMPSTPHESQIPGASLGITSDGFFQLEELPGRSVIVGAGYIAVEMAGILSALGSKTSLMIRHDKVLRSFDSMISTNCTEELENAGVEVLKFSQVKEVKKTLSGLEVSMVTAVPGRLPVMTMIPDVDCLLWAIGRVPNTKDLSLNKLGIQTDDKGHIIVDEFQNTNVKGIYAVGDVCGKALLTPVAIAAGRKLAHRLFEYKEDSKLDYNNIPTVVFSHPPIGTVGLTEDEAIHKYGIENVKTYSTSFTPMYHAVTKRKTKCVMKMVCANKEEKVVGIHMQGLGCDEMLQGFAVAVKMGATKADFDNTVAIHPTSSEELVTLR
Method: as §3

6PGDH = target: T3, 6PGDH (Homo sapiens, UniProt P52209); test: 6PGDH activity in lysates of inhibitor-treated erythrocytes; format: cell-based; conditions: at the concentrations used, data not shown
T3 construct: endogenous in cells; host or cells: human erythrocytes (RBC concentrates), treated 24 h, then lysed
T3 sequence (P52209 2-483 limits assumed): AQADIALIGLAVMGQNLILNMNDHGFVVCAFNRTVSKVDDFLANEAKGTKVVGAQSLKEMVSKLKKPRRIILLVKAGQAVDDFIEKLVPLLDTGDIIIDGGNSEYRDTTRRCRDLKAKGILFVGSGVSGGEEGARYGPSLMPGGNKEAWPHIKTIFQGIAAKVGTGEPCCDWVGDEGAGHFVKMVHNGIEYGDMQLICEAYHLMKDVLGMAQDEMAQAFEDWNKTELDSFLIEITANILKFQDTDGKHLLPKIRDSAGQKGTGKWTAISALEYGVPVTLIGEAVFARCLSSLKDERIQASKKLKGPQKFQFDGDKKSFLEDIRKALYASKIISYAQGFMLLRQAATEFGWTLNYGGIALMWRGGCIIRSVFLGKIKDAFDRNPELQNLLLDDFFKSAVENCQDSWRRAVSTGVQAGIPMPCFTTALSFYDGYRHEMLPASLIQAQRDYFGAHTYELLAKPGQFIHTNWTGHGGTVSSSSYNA
Method: as §3

human erythrocytes [7] = test: Eryptosis: Annexin V binding to phosphatidylserine, flow cytometry; format: cell-based; conditions: increasing concentrations, same donors, 24 h and 48 h
Method: as §1

Trypanosoma brucei = test: In vitro growth inhibition of parasite culture (own unpublished data); format: cell-based; conditions: preliminary work
human erythrocytes [8] = conditions: 20 µM
Method: (§4) RBC concentrates (0.4% Hct) were treated with varying concentrations of Bay 11–7082, parthenolide or DMF for 24 h or 48 h, then hemolysis was determined. Briefly, after incubation, 600 μl suspension containing 1.2·10^7 RBCs were centrifuged for 4 min at 420 g, 4 °C, and the supernatants were harvested. To quantify hemolysis, the hemoglobin concentration of the supernatant was determined photometrically at 405 nm. The absorption of the supernatant of RBCs lysed in distilled water was defined as 100% hemolysis.

human erythrocytes [9] = test: Hemolysis (hemoglobin in supernatant, 405 nm); conditions: 24 h / 48 h, compared with Bay 11–7082
Method: as §4

[10] = 20 μM, 24 h incubation, blood group A Rhesus +
[11] = 20 μM, 24 h incubation, blood group B Rhesus +
[12] = 20 μM, 24 h incubation, blood group O Rhesus +
[13] = 140 μM, 24 h incubation, blood group A Rhesus +
[14] = 140 μM, 24 h incubation, blood group B Rhesus +
[15] = 140 μM, 24 h incubation, blood group O Rhesus +
[16] = 0.25 μM, 2.5 h incubation (after 21.5 h in Ringer), positive control, blood group A Rhesus +
[17] = 0.25 μM, 2.5 h incubation (after 21.5 h in Ringer), positive control, blood group B Rhesus +
[18] = 0.25 μM, 2.5 h incubation (after 21.5 h in Ringer), positive control, blood group O Rhesus +
[19] = 50 μM, 24 h incubation, blood group A Rhesus +
[20] = 50 μM, 24 h incubation, blood group B Rhesus +
[21] = 50 μM, 24 h incubation, blood group O Rhesus +

T1 sequence (P11413 2-515 limits assumed): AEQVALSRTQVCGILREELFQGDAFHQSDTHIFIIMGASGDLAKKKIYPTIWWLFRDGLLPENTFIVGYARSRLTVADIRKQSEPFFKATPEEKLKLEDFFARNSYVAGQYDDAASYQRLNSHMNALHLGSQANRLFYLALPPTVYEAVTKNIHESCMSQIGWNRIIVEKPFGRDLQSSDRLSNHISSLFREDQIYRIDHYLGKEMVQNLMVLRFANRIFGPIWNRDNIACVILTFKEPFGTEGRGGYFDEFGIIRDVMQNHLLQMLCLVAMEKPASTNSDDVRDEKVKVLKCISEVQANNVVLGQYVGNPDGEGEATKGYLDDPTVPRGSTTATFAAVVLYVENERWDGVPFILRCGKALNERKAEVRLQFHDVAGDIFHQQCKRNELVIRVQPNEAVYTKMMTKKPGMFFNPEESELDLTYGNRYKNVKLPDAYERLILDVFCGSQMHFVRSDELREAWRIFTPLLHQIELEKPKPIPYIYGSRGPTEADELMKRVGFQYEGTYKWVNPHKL

SMILES: Cc1ccc(S(=O)(=O)/C=C/C#N)cc1 [Bay 11–7082]
MCHC [1, 10]: 33.9 g/dL | MCV [1, 10]: 84.1 fL | MCHC [1, 11]: 37 g/dL | MCV [1, 11]: 78.5 fL | MCHC [1, 12]: 34.1 g/dL | MCV [1, 12]: 86.3 fL | GeoMean [2, 10]: 422.4 | GeoMean [2, 11]: 339.3 | GeoMean [2, 12]: 410.7 | decrease of cell volume (forward scatter) [2]: marked decrease | GSH depletion ([3]; 20 μM final concentration): totally deplete GSH | GSH ([3]; 20 μM): 0.00 nmol/mg Hb | IC50 [3]: 7.6 µM | GSSG ([4]; 20 μM): 0.03 nmol/mg Hb | EC100 (inhibition of G6PDH activity) [5]: 20 | EC50 [5]: 10 µM | inhibition of GR activity ([6]; 20 μM, 24 h): 100% | EC100 (inhibition of GR activity) ([6]; erythrocytes treated 24 h, 0.6% Hct): 20 | EC50 ([6]; erythrocytes treated 24 h, 0.6% Hct, read-out: EC50 (inhibition of GR activity)): 10 µM | GR activity after addition of exogenous FAD ([6]; samples previously treated with 20 μM for 24 h): did not demonstrate significantly increased GR activity in the presence of FAD | inhibitory effect on 6PGDH activity (6PGDH): did not observe any inhibitory effect | eryptosis (Annexin V binding), comparison of the three inhibitors (human erythrocytes [7]): strongest effect | in vitro growth inhibitory effect on parasites' culture (Trypanosoma brucei): significant in vitro growth inhibitory effect | hemolysis (share of total population) (human erythrocytes [8]): approx. 3%

IC50 ([3]; Homo sapiens, Erythrocyte): 20 µM | G6PDH inactivation ([5]; 140 μM, 24 h): ~ 50% | EC50 [5]: 140 µM | inhibition at 140 µM ([6]; 140 μM, 24 h): 60% | inhibitory effect on 6PGDH activity (6PGDH): did not observe any inhibitory effect
SMILES: COC(=O)/C=C/C(=O)OC [DMF, dimethyl fumarate]
MCHC [1, 13]: 33.3 g/dL | MCV [1, 13]: 85.6 fL | MCHC [1, 14]: 33.5 g/dL | MCV [1, 14]: 83.5 fL | MCHC [1, 15]: 32.9 g/dL | MCV [1, 15]: 88.2 fL | GeoMean [2, 13]: 426.7 | GeoMean [2, 14]: 427.3 | GeoMean [2, 15]: 448 | decrease of cell volume (forward scatter) [2]: to a lesser extent | GSH depletion ([3]; 140 μM): almost totally deplete GSH | GSH ([3]; 140 μM): 0.17 nmol/mg Hb | GSSG ([4]; 140 μM): 0.03 nmol/mg Hb | in vitro growth inhibitory effect on parasites' culture (Trypanosoma brucei): significant in vitro growth inhibitory effect | ratio of hemolysis to eryptosis (human erythrocytes [9]): even lower as compared with Bay 11–7082

SMILES: C[C@H](CCC(=O)O)C[C@H](C)C[C@H](C)C(=O)/C=C(\O)[C@H](C)C[C@H](C)C/C=C/[C@@H](C)[C@@H](O)[C@@H](C)[C@@H](O)C[C@@H]1CC[C@@](C)([C@H]2CC[C@@](C)([C@@H](C)O)O2)O1 [Ionomycin]
MCHC [1, 16]: 53 g/dL | MCV [1, 16]: 73.3 fL | MCHC [1, 17]: 50.4 g/dL | MCV [1, 17]: 72.2 fL | MCHC [1, 18]: 55.7 g/dL | MCV [1, 18]: 75.8 fL | GeoMean [2, 16]: 209.3 | GeoMean [2, 17]: 166.2 | GeoMean [2, 18]: 186.3

IC50 ([3]; Homo sapiens, Erythrocyte): 10 µM | G6PDH inhibition ([5]; 50 μM, 24 h): total G6PDH inhibition | inhibition at 50 µM ([5]; 50 μM, 24 h): 100% | EC100 (inhibition of G6PDH activity) [5]: 50 µM | EC50 [5]: 12 µM | inhibitory effect on 6PGDH activity (6PGDH): did not observe any inhibitory effect
SMILES: C=C1C(=O)O[C@H]2[C@H]1CC/C(C)=C/CC[C@@]1(C)O[C@@H]21 [Parthenolide, parthenolide]
MCHC [1, 19]: 33.5 g/dL | MCV [1, 19]: 84.1 fL | MCHC [1, 20]: 34.4 g/dL | MCV [1, 20]: 82.2 fL | MCHC [1, 21]: 33.8 g/dL | MCV [1, 21]: 87 fL | GeoMean [2, 19]: 425.24 | GeoMean [2, 20]: 418.8 | GeoMean [2, 21]: 451.5 | decrease of cell volume (forward scatter) [2]: to a lesser extent | GSH depletion ([3]; 50 μM): almost totally deplete GSH | GSH ([3]; 50 μM): 0.30 nmol/mg Hb | GSSG ([4]; 50 μM): 0.03 nmol/mg Hb | ability to inhibit GR activity ([6]; parthenolide 1–50 μM, 24 h): Unlike parthenolide, only Bay 11–7082 and DMF were able to inhibit the GR activity | in vitro growth inhibitory effect on parasites' culture (Trypanosoma brucei): significant in vitro growth inhibitory effect | ratio of hemolysis to eryptosis (human erythrocytes [9]): even lower as compared with Bay 11–7082

— PMC4926109, “Pharmacological targeting of glucose-6-phosphate dehydrogenase in human erythrocytes by Bay 11–7082, parthenolide and dimethyl fumarate” (Scientific Reports, 2016)
